Experiment: xn = mol fraction of the nth substance listed

CCCCCCCCCCCCCCCC[n+]1ccccc1.[Cl-] + C[C@@H](O)[C@H](N)C(=O)O + O
308.15 K, 101 kPa
Details	electrical conductivity [S/m]
x2 = 0, x1 = 5.4e-07	0.000222
x2 = 0, x1 = 9e-07	0.00029
x2 = 0, x1 = 1.62e-06	0.0004
x2 = 0, x1 = 2.34e-06	0.000465
x2 = 0, x1 = 2.88e-06	0.000581
x2 = 0, x1 = 3.78e-06	0.000705
x2 = 0, x1 = 4.5e-06	0.000794
x2 = 0, x1 = 5.59e-06	0.000937
x2 = 0, x1 = 6.85e-06	0.00106
x2 = 0, x1 = 7.93e-06	0.001222
x2 = 0, x1 = 9.01e-06	0.001438
x2 = 0, x1 = 1.009e-05	0.00159
x2 = 0, x1 = 1.117e-05	0.001701
x2 = 0, x1 = 1.442e-05	0.00209
x2 = 0, x1 = 1.55e-05	0.00219
x2 = 0, x1 = 1.766e-05	0.00237
x2 = 0, x1 = 1.982e-05	0.00248
x2 = 0, x1 = 2.18e-05	0.00259
x2 = 0, x1 = 2.397e-05	0.00264
x2 = 0, x1 = 2.595e-05	0.00278
x2 = 0, x1 = 2.991e-05	0.00297
x2 = 0, x1 = 3.406e-05	0.00314
x2 = 0, x1 = 3.784e-05	0.00328
x2 = 0, x1 = 4.162e-05	0.00342
x2 = 0, x1 = 4.541e-05	0.00356
x2 = 0, x1 = 4.919e-05	0.00369
x2 = 0, x1 = 5.099e-05	0.00375
x2 = 0, x1 = 5.982e-05	0.00403
x2 = 0, x1 = 6.829e-05	0.00432
x2 = 0, x1 = 7.64e-05	0.00454
x2 = 0, x1 = 8.415e-05	0.00477
x2 = 0, x1 = 9.171e-05	0.00497
x2 = 0, x1 = 9.892e-05	0.00516
x2 = 0, x1 = 0.0001058	0.00533
x2 = 0, x1 = 0.0001124	0.0055
x2 = 0, x1 = 0.0001189	0.00565
x2 = 2.018e-05, x1 = 5.4e-07	0.000282
x2 = 2.018e-05, x1 = 9e-07	0.00035
x2 = 2.018e-05, x1 = 1.62e-06	0.000431
x2 = 2.018e-05, x1 = 2.34e-06	0.000514
x2 = 2.018e-05, x1 = 2.88e-06	0.000652
x2 = 2.018e-05, x1 = 3.78e-06	0.000768
x2 = 2.018e-05, x1 = 4.51e-06	0.00084
x2 = 2.018e-05, x1 = 5.59e-06	0.001003
x2 = 2.018e-05, x1 = 6.67e-06	0.00115
x2 = 2.018e-05, x1 = 7.93e-06	0.00127
x2 = 2.018e-05, x1 = 9.01e-06	0.00139
x2 = 2.018e-05, x1 = 1.009e-05	0.001517
x2 = 2.018e-05, x1 = 1.117e-05	0.00165
x2 = 2.018e-05, x1 = 1.334e-05	0.00188
x2 = 2.018e-05, x1 = 1.55e-05	0.00214
x2 = 2.018e-05, x1 = 1.766e-05	0.0023
x2 = 2.018e-05, x1 = 1.964e-05	0.00249
x2 = 2.018e-05, x1 = 2.181e-05	0.00259
x2 = 2.018e-05, x1 = 2.379e-05	0.00271
x2 = 2.018e-05, x1 = 2.595e-05	0.00282
x2 = 2.018e-05, x1 = 2.992e-05	0.00299
x2 = 2.018e-05, x1 = 3.388e-05	0.00317
x2 = 2.018e-05, x1 = 3.766e-05	0.00332
x2 = 2.018e-05, x1 = 4.163e-05	0.00348
x2 = 2.018e-05, x1 = 4.523e-05	0.00361
x2 = 2.018e-05, x1 = 4.902e-05	0.00375
x2 = 2.018e-05, x1 = 5.082e-05	0.00383
x2 = 2.018e-05, x1 = 5.965e-05	0.00411
x2 = 2.018e-05, x1 = 6.812e-05	0.00438
x2 = 2.018e-05, x1 = 7.623e-05	0.0046
x2 = 2.018e-05, x1 = 8.398e-05	0.00483
x2 = 2.018e-05, x1 = 9.136e-05	0.00502
x2 = 2.018e-05, x1 = 9.857e-05	0.0052
x2 = 2.018e-05, x1 = 0.0001054	0.00538
x2 = 2.018e-05, x1 = 0.0001121	0.00553
x2 = 2.018e-05, x1 = 0.0001186	0.00568
x2 = 0.0002, x1 = 5.4e-07	0.000209
x2 = 0.0002, x1 = 9e-07	0.000279
x2 = 0.0002, x1 = 1.62e-06	0.000384
x2 = 0.0002, x1 = 2.35e-06	0.000481
x2 = 0.0002, x1 = 2.89e-06	0.000615
x2 = 0.0002, x1 = 3.79e-06	0.000744
x2 = 0.0002, x1 = 4.51e-06	0.000835
x2 = 0.0002, x1 = 5.59e-06	0.000986
x2 = 0.0002, x1 = 6.67e-06	0.001137
x2 = 0.0002, x1 = 7.94e-06	0.00127
x2 = 0.0002, x1 = 9.02e-06	0.001403
x2 = 0.0002, x1 = 1.01e-05	0.00155
x2 = 0.0002, x1 = 1.118e-05	0.00168
x2 = 0.0002, x1 = 1.335e-05	0.00196
x2 = 0.0002, x1 = 1.551e-05	0.00219
x2 = 0.0002, x1 = 1.75e-05	0.00237
x2 = 0.0002, x1 = 1.966e-05	0.00251
x2 = 0.0002, x1 = 2.183e-05	0.00264
x2 = 0.0002, x1 = 2.381e-05	0.00275
x2 = 0.0002, x1 = 2.58e-05	0.00286
x2 = 0.0002, x1 = 2.995e-05	0.00304
x2 = 0.0002, x1 = 3.391e-05	0.00321
x2 = 0.0002, x1 = 3.77e-05	0.00335
x2 = 0.0002, x1 = 4.149e-05	0.0035
x2 = 0.0002, x1 = 4.528e-05	0.00364
x2 = 0.0002, x1 = 4.889e-05	0.00376
x2 = 0.0002, x1 = 5.069e-05	0.00382
x2 = 0.0002, x1 = 5.953e-05	0.0041
x2 = 0.0002, x1 = 6.801e-05	0.00437
x2 = 0.0002, x1 = 7.612e-05	0.00458
x2 = 0.0002, x1 = 8.388e-05	0.00481
x2 = 0.0002, x1 = 9.146e-05	0.00499
x2 = 0.0002, x1 = 9.849e-05	0.00517
x2 = 0.0002, x1 = 0.0001055	0.00533
x2 = 0.0002, x1 = 0.000112	0.0055
x2 = 0.0002, x1 = 0.0001185	0.00565
x2 = 0.0009181, x1 = 2.391e-05	0.00276
x2 = 0.0009181, x1 = 2.608e-05	0.00285
x2 = 0.0009181, x1 = 3.007e-05	0.00304
x2 = 0.0009181, x1 = 3.405e-05	0.0032
x2 = 0.0009181, x1 = 3.804e-05	0.00337
x2 = 0.0009181, x1 = 4.184e-05	0.00351
x2 = 0.0009181, x1 = 4.564e-05	0.00365
x2 = 0.0009181, x1 = 4.926e-05	0.00379
x2 = 0.0009181, x1 = 5.108e-05	0.00385
x2 = 0.0009181, x1 = 5.995e-05	0.00413
x2 = 0.0009181, x1 = 6.846e-05	0.00439
x2 = 0.0009181, x1 = 7.661e-05	0.00463
x2 = 0.0009181, x1 = 8.44e-05	0.00485
x2 = 0.0009181, x1 = 9.2e-05	0.00505
x2 = 0.0009181, x1 = 9.907e-05	0.00523
x2 = 0.0009181, x1 = 0.0001061	0.0054
x2 = 0.0009181, x1 = 0.0001128	0.00556
x2 = 0.0009181, x1 = 0.0001192	0.00571
x2 = 0.0009182, x1 = 5.4e-07	0.000316
x2 = 0.0009182, x1 = 9.1e-07	0.000383
x2 = 0.0009182, x1 = 1.63e-06	0.00045
x2 = 0.0009182, x1 = 2.35e-06	0.000543
x2 = 0.0009182, x1 = 2.9e-06	0.000651
x2 = 0.0009182, x1 = 3.8e-06	0.000745
x2 = 0.0009182, x1 = 4.53e-06	0.000847
x2 = 0.0009182, x1 = 5.61e-06	0.00102
x2 = 0.0009182, x1 = 6.88e-06	0.001307
x2 = 0.0009182, x1 = 7.97e-06	0.001432
x2 = 0.0009182, x1 = 9.06e-06	0.00156
x2 = 0.0009182, x1 = 1.014e-05	0.00169
x2 = 0.0009182, x1 = 1.123e-05	0.001816
x2 = 0.0009182, x1 = 1.34e-05	0.00202
x2 = 0.0009182, x1 = 1.558e-05	0.00226
x2 = 0.0009182, x1 = 1.775e-05	0.0024
x2 = 0.0009182, x1 = 1.974e-05	0.00254
x2 = 0.0009182, x1 = 2.192e-05	0.00266

CCCCCCCCCCCCCCCC[N+](C)(C)C.[Br-] + CCO + O
298.2 K, 101.3 kPa
Details	electrical conductivity [S/m]
x1 = 1.26e-06, x2 = 0.05064	0.00062
x1 = 3.09e-06, x2 = 0.05064	0.00117
x1 = 5.13e-06, x2 = 0.05064	0.00178
x1 = 7.19e-06, x2 = 0.05064	0.00236
x1 = 9.2e-06, x2 = 0.05064	0.00294
x1 = 1.12e-05, x2 = 0.05064	0.0035
x1 = 1.326e-05, x2 = 0.05064	0.00406
x1 = 1.526e-05, x2 = 0.05064	0.00458
x1 = 1.726e-05, x2 = 0.05064	0.00501
x1 = 1.932e-05, x2 = 0.05064	0.0055
x1 = 2.135e-05, x2 = 0.05064	0.00592
x1 = 2.333e-05, x2 = 0.05064	0.00629
x1 = 2.537e-05, x2 = 0.05064	0.00663
x1 = 2.735e-05, x2 = 0.05064	0.00698
x1 = 2.922e-05, x2 = 0.05064	0.00728
x1 = 3.097e-05, x2 = 0.05064	0.00754
x1 = 3.328e-05, x2 = 0.05064	0.00788

From the CheMixHub ionic liquid set
